From patent US20160136295A1, “BIOMARKERS FOR TREATMENT WITH ANTI-TUBULIN CHEMOTHERAPEUTIC COMPOUNDS” (GENENTECH, INC., priority 2012, published 2016)
Square brackets hold non-standard residues; d marks the D form. Peptide text beside a SMILES is read from it. * marks the point of attachment. Dolaproine = CO[C@@H]([C@@H]1CCCN1)[C@@H](C)C(=O)O; Dil = CC[C@H](C)[C@H](NC)[C@@H](CC(=O)O)OC; X1 = C[C@@H](N*)[C@@H](O)c1ccccc1; NMeV = CN[C@H](C(=O)O)C(C)C

Experiments:
Mcl-1 = Mcl-1 protein level / degradation in mitotic arrest (western blot of synchronized cells); assay type: cell-based, human; conditions: for maintenance of mitotic arrest (cdc27 phosphorylation): CGP74514A 2 μM or roscovitine 2.5 μM
Procedure: (§1) The viability of cancer cell lines, and MEFs in which genes encoding IAPs had been knocked out, was analysed by using the CellTiter-Glo Luminescent Cell Viability Assay® (Promega). Cells were treated in triplicate with anti-tubulin agents for the indicated times, using dimethylsulphoxide treatment as a control. The viability of BCL2-family-member-null MEFs was analysed by propidium iodide staining, as described previously (Chen, L. et al. (2005) Molecular cell 17:393-403), after treatment with anti-tubulin agents for 48 h. Cell synchronization was achieved by culture either in serum-free medium for 12-16 h or in medium containing 2 mM thymidine for 18-24 h, release from the thymidine block with three washes in PBS, followed by culture for 8-12 h in complete growth media (compositions are described in the Supplementary Information). Cells then underwent a second thymidine block for 16-20 h, three further washes in PBS and release into complete medium containing the indicated reagents. To block MCL1 degradation, […] MG132 was added as cells entered mitotic arrest, as assessed by visual inspection. See the Examples for full methods.
(§2) Western blotting was performed essentially as described (Wertz, I. E. et al. (2004) Science (New York, N.Y 303:1371-1374). In brief, cells were lysed in corrected FLAG elution buffer (CFEB) (19.17 mM Tris (pH 7.5), 916.7 μM MgCl2, 92.5 mM NaCl and 0.1% Triton X-100) with protease and phosphatase inhibitors; in some cases 6 M urea was added. Cleared lysates were quantitated and equal amounts of proteins were reduced, alkylated, separated by SDS-PAGE, and transferred onto PVDF membranes (Invitrogen) following standard procedures. Western blotting was performed as recommended by the respective antibody manufacturers. Patient tissue and xenograft samples were lysed in 5× volume of CFEB with protease inhibitors using Fast prep 24 (MP Biologicals). Tissue lysates were cleared and 40 μg total protein was prepared for western blotting analysis as described above. Immunoprecipitations were performed with the indicated antibodies as described (Willis, S. N. et al. (2007) Science (New York, N.Y 315:856-859; Wertz, I. E. et al. (2004) Science (New York, N.Y 303:1371-1374). PP2A activity was performed on PP2A or Mcl-1 immunoprecipitates as recommended by the manufacturer (Upstate)

[1] = test system: ovarian cancer cell lines; experiment: Mitotic arrest in asynchronous ovarian cancer cell lines (western blot, phospho-histone H3 ELISA); assay type: cell-based, human; conditions: unsynchronized cell lines, 200 nM paclitaxel
Procedure: The unsynchronized cell lines (with FBW7 status specified in parentheses) were treated with 200 nM paclitaxel and were subsequently collected at the indicated time points for western blot and phospho-histone H3 ELISA analysis.

[2] = test system: FBW7-WT, FBW7−/− or FBW7 mutant colon cancer cell lines (HCT116, DLD1); experiment: Cell viability of colon cancer cell lines by FBW7 status (CellTiter-Glo); assay type: cell-based, human; conditions: 48 hours
Procedure: as §1
were synthesized by Ambion and experiments were performed as described (Huang, H. C., et al (2009) Cancer cell 16:347-358). For viability experiments using stable cell lines transfected with doxycycline-inducible shRNAs to LacZ or Mcl-1 ORF, cells were plated in 10 cm2 plates with 0.2 μg/mL doxycycline for two days. On the third day, cells were plated in to 96-well plates at 5×10^3 per well for viability assays as described above. […] For western blot analysis, cells were harvested at indicated time points and processed as described above.

[3] = test system: ovarian cancer cell lines; experiment: Cell viability of ovarian cancer cell lines by FBW7 status; assay type: cell-based, human; conditions: FBW7-wild-type ovarian cancer cell lines that undergo mitotic arrest, relative to FBW7-mutant cells
Procedure: as §1

[4] = test system: murine embryonic fibroblasts (MEFs); experiment: Viability of BCL2-family-member-null MEFs by propidium iodide staining after anti-tubulin agents; assay type: cell-based; conditions: for killing (cell viability): treated 48 hours; for sensitivity to killing: 48 hours
Procedure: as §1

HCT116 cells = experiment: Live time-lapse imaging of mitotic fate; assay type: cell-based, human
Procedure: HCT116 parental or FBW7−/− cells expressing shLacZ or shMcl-1 were plated at 15,000-30,000 cells per well in 96-well μ-plates (ibidi GmbH) and infected with GFP-H2B baculovirus (Invitrogen) 24 hours prior to adding paclitaxel or vincristine. Cells were imaged live at 37° C. with 5% CO2 using a Nikon TiE® microscope with a Cool Snap® CCD camera (Roper Scientific) and a Plan Apo VC 20× 0.75 NA objective. Three images with 6 μm z-steps were acquired for each position every 10 minutes for 43 hours. Mitotic fate was analyzed manually using NIS-Elements software (Nikon) and numerical data was complied and statistically analyzed using Excel (Microsoft). Fifty mitotic cells were analyzed for each condition and p-values were calculated for the change in the number of cells that exited mitosis or entered apoptosis using the one-tailed Fisher's exact test.

[5] = test system: MEFs in which genes encoding IAPs had been knocked out; experiment: Cell viability of MEF cell lines deficient in IAP genes (CellTiter-Glo); assay type: cell-based, murine; conditions: IAP-deficient MEFs plus siRNA, 48 hours
Procedure: as §1

[6] = test system: TOV112D-X1 ovarian tumors; experiment: Ovarian tumor xenografts in vivo; design: species or system athymic nu/nu mice; conditions: tumors expressing FBW7-R505L vs FBW7-wild-type; 20 mg/kg intravenous, days 21 and 23 post implant
Procedure: Wild-type FBW7 TOV112D-X1 ovarian cancer cells expressing either an empty vector (vector) or the R505L point mutant (FBW7-R505L) were resuspended in Matrigel® (BD Biosciences) at a density of 1×10^8 cells/mL, and […] Matrigel® grafts containing 1×10^6 cancer cells were implanted under the kidney capsule of 8-week-old athymic nu/nu mice (Harlan Sprague Dawley). Only one graft was implanted per mouse. Once tumors became palpable on the kidney surface, tumor growth was assessed three times per week via caliper measurements of the entire kidney volume (0.523×length×width×height). On day 21 post-implant, when tumors reached an average volume of 700 mm^3, paclitaxel (APP Pharmaceuticals) was administered to both FBW7-WT and FBW7-R505L tumor groups via intravenous tail vein injection at 20 mg/kg in 5% dextrose water. Paclitaxel administration was repeated on day 23 post-implant. Statistical differences were evaluated using a two-tailed Student's t-test. P values of less than 0.05 were considered significant.

[7] = test system: Granta-519, HCT-116 and HeLa cells; experiment: Mitotic arrest and Mcl-1 degradation with MMAE (FIG. 5); assay type: cell-based
myc-Mcl-1 / FLAG-FBW7 = experiment: Recruitment of myc-Mcl-1 to FLAG-FBW7 in mitotic arrest (immunoprecipitation, HeLa cells); assay type: cell-based, human; conditions: HeLa released into paclitaxel; agent 1 hour then 3 hour 25 μM MG-132; SP600125 25 μM, SB203580 2.65 μM, CGP74514A, roscovitine 2.5 μM
Procedure: The indicated constructs were expressed in HeLa cells with or without scramble or cdc20 RNAi, and then synchronized and released into paclitaxel. […] Cells were subsequently collected and processed as indicated.
as §2

SMILES: CC(=O)O[C@H]1C(=O)[C@@]2(C)[C@H]([C@H](OC(=O)c3ccccc3)[C@]3(O)CC(OC(=O)[C@H](O)[C@@H](NC(=O)c4ccccc4)c4ccccc4)C(C)=C1C3(C)C)[C@]1(OC(C)=O)CO[C@@H]1C[C@@H]2O (relative stereo) [paclitaxel, β-(benzoylamino)-α-hydroxy-,6,12b-bis(acetyloxy)-12-(benzoyloxy)-2a,3,4,4a,5,6,9,10,11,12,12a,12b-dodecahydro-4,11-dihydroxy-4a,8,13,13-tetramethyl-5-oxo-7,11-methano-1H-cyclodeca(3,4)benz(1,2-b) oxet-9-ylester,(2aR-(2a-α,4-β,4a-β,6-β,9-α(α-R*,β-S*),11-α,12-α,12α-α,2b-α))-benzenepropanoic acid]
- Mcl-1 protein level in mitotic arrest (Mcl-1; synchronized cells (HeLa) released into the agent): declined markedly
- mitotic arrest [1]: arrested in mitosis
- sensitivity to drug-induced death upon reducing Mcl-1 protein ([2]; FBW7-null HCT116 cells, doxycycline-inducible Mcl-1 shRNA): restored their sensitivity
- resistance to drug-induced cell death ([2]; FBW7-null cell lines relative to wild-type cells): more resistant
- resistance to drug-induced cell death ([2]; FBW7−/− or FBW7 mutant colon cancer cell lines relative to FBW7-WT): more resistant
- sensitivity (cell viability) [3]: sensitive
- killing (cell viability) ([4]; BAX−/−/BAK−/− MEFs): resistant
- sensitivity to killing ([4]; BCL-X−/− MEFs vs wild-type): more sensitive than wild-type cells
- sensitivity to killing ([4]; MCL-1−/− MEFs vs wild-type): enhanced sensitivity
- killing (cell viability) ([4]; wild-type MEFs): significantly more sensitive
- drug-induced apoptosis upon decreasing Mcl-1 protein levels (HCT116 cells; FBW7-null cells with Mcl-1 shRNA vs control shRNA): enhanced
- exit from drug-induced mitotic arrest (mitotic slippage) (HCT116 cells; FBW7-null vs FBW7-wild-type cells): more readily
- cell sensitivity upon ablation of IAP family proteins [5]: does not enhance cell sensitivity
- tumor resistance (tumor volume growth curves) [6]: more resistant

SMILES: CC[C@H](C)[C@@H]([C@@H](CC(=O)N1CCC[C@H]1[C@H](OC)[C@@H](C)C(=O)N[C@H](C)[C@@H](O)c1ccccc1)OC)N(C)C(=O)[C@@H](NC(=O)[C@@H](NC)C(C)C)C(C)C [MMAE, (S)—N-((3R,4S,5S)-1-((S)-2-((1R,2R)-3-(((1S,2R)-1-hydroxy-1-phenylpropan-2-yl)amino)-1-methoxy-2-methyl-3-oxopropyl)pyrrolidin-1-yl)-3-methoxy-5-methyl-1-oxoheptan-4-yl)-N,3-dimethyl-2-((S)-3-methyl-2-(methylamino)butanamido)butanamide] (H-[NMeV]V[Dil][Dolaproine]-X1)
- mitotic arrest (phospho-cdc27) [7]: promotes mitotic arrest
- Mcl-1 degradation ([7]; subsequent to mitotic arrest): Mcl-1 degradation

SMILES: CC[C@H](CO)Nc1nc(NCc2ccccc2)c2ncn(C(C)C)c2n1 [roscovitine]
- maintenance of mitotic arrest (cdc27 phosphorylation) (Mcl-1; HeLa released into paclitaxel): drives cells out of mitotic arrest
- recruitment of myc-Mcl-1 to FLAG-FBW7 in mitotic arrest (myc-Mcl-1 / FLAG-FBW7): attenuates recruitment of myc-Mcl-1 to FLAG-FBW7

SMILES: CCn1cnc2c(Nc3cccc(Cl)c3)nc(N[C@@H]3CCCC[C@@H]3N)nc21 [CGP74514A]
- maintenance of mitotic arrest (cdc27 phosphorylation) (Mcl-1; HeLa released into paclitaxel): drives cells out of mitotic arrest
- Mcl-1 degradation in mitotic arrest (Mcl-1; HeLa released into paclitaxel, CGP74514A 2 μM, FR180204 2 μM, SP600125 25 μM, SB203580 2 μM added on entry into mitotic arrest): attenuate Mcl-1 degradation
- recruitment of myc-Mcl-1 to FLAG-FBW7 in mitotic arrest (myc-Mcl-1 / FLAG-FBW7): attenuates recruitment of myc-Mcl-1 to FLAG-FBW7
